From US8603497B2, “Composition for local anesthesia” (National University Corporation Okayama University, priority 2008, dated 2013)
Structures can show the parent of a compound that is named as a salt.

Assays:
Hartley male guinea pigs [1] = assay: guinea pig wheal method (durability of local anesthetic action); settings: for ED50 for adrenaline alone (local anesthesia enhancing action) / ED50 for dexmedetomidine hydrochloride alone (local anesthesia enhancing action): added alone to lidocaine hydrochloride; for ED50 for adrenaline alone (local anesthesia enhancing action): calculated from scores of Solutions 6 to 10; for theoretical ED50 value in combined use / ED50 value obtained in the experiment in combined use: combined use of adrenaline and dexmedetomidine; for theoretical ED50 value in combined use: isobologram, mean ±95% confidence interval in brackets; for ED50 value obtained in the experiment in combined use: significantly different from theoretical, P<0.05 (T-test); for ED50 for dexmedetomidine hydrochloride alone (local anesthesia enhancing action): calculated from scores of Solutions 1 to 5
Protocol: A guinea pig wheal method was employed. The hair on the back of Hartley male guinea pigs each having a body weight of 500 to 600 g was clipped. After that, 0.1 ml each of Solutions 1 to 5 blended as described above was injected intracutaneously, and the surroundings of wheals, which developed in the skin, were marked with a felt-tipped pen. Pricks were applied on six sites inside each wheal with a fixed-weight sensory needle. […] The pricks were applied every 5 minutes until 60 minutes, and the total of the number of times that an anesthetic effect was observed was used as a score to assess the durability of a local anesthetic action. A 50% effective dose (effective dose 50: ED50) for dexmedetomidine was calculated based on a score for each of Solutions 1 to 5.
Each score for Solutions 16 to 21 and Solutions 22 to 27 was calculated to assess a local anesthetic effect.
Each score for Solutions 28 to 31 was calculated to assess a local anesthetic effect.

Hartley male guinea pigs [2] = assay: peripheral blood flow by Doppler rheometer after intradermal injection; assay type: in vivo, guinea pig; settings: 0.1 ml intradermal, every 5 minutes until 30 minutes, ratio to baseline; FIG. 2
Protocol: The hair of the back was clipped and then three sites around the center of the back were marked with a felt-tipped pen at sufficient intervals. A blood flow value was measured by attaching a Doppler rheometer (ALF21RD; ADVANCE CO., LTD., Tokyo) probe and was used as a baseline value (Time 0). […] 0.1 ml each of Solutions 32, 33, and 34 obtained by the blending was intradermally injected into the three sites and the Doppler rheometer probe was fixed on the same sites. A blood flow value was time-dependently measured at an interval of 5 minutes after the injection until 30 minutes. The ratio of the blood flow value to the baseline value (0 to 1.0) was expressed as a peripheral blood flow degree and a time-dependent change at each of the injection sites was determined.

Compound	ED50 for adrenaline alone (local anesthesia enhancing action) (Hartley male guinea pigs [1]) [nM]	ED50 for adrenaline alone (local anesthesia enhancing action) (Hartley male guinea pigs [1]; listed as Adrenaline) [nM]	theoretical ED50 value in combined use (Hartley male guinea pigs [1]) [nM]	ED50 value obtained in the experiment in combined use (Hartley male guinea pigs [1]) [nM]	peripheral blood flow / peripheral vasoconstriction (Hartley male guinea pigs [2])	ED50 for dexmedetomidine hydrochloride alone (local anesthesia enhancing action) (Hartley male guinea pigs [1]) [nM]	ED50 for dexmedetomidine hydrochloride alone (local anesthesia enhancing action) (Hartley male guinea pigs [1]; listed as Dexmedetomidine hydrochloride) [nM]
CNCC(O)c1ccc(O)c(O)c1 (stereo not drawn) [adrenaline]	5910	5910	2960	788			
Cc1cccc([C@H](C)c2cnc[nH]2)c1C [dexmedetomidine hydrochloride, Dexmedetomidine hydrochloride]			39.2	11.3	tended to suppress the peripheral vasoconstriction action of adrenaline	78.3	78.3
